US20240398812A1 (Caraway Therapeutics, Inc., priority 2021, published 2024)

Experiments:
Type in all cases: cell-based
human TRPML1 = human TRPML1 (Homo sapiens, UniProt Q9GZU1); assay: Fluorescent TRPML1 assay (Fluo4-AM calcium fluorescence, HEK-293 Trex cells)
How it was run: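 Agonist EC50 from non-linear regression of percent activity versus on-plate controls, calcium signal read at 480/540 nm. Compounds spanned 6 nM–20 μM final in triplicate. Cells: doxycycline-induced HEK-293 Trex with cell-surface human TRPML1 mutant, Fluo4-AM loaded, in Ringer's containing 10 mM calcium.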

TRPML2 = molecular target: T1, TRPML2 (Homo sapiens, UniProt Q8IZK6); assay: Fluorescent TRPML2 assay (as for TRPML1)
T1 construct: expressed in transfected cells
T1 sequence (Q8IZK6 1-566): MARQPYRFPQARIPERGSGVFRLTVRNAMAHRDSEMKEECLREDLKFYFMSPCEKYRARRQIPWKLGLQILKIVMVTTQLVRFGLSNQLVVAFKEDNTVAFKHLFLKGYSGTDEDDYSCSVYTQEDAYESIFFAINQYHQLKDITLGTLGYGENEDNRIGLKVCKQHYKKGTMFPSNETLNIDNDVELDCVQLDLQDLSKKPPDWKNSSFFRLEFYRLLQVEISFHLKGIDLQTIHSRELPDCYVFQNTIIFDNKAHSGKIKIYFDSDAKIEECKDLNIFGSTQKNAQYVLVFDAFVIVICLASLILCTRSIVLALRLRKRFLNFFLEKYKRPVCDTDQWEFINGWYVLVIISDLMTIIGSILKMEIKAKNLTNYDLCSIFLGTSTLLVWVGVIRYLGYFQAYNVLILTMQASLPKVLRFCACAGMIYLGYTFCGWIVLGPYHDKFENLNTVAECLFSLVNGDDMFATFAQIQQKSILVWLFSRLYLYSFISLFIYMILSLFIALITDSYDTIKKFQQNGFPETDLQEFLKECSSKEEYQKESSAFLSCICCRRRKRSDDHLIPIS
How it was run: (§1)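 EC50 came from non-linear regression of percent activity, set against on-plate positive and negative controls, using Fluo4 fluorescence (ex 480, em 540 nm). Compounds ran in triplicate from 6 nM to 20 µM final in half-log steps. Doxycycline-induced (0.5 ug/mL) HEK-293 Trex cells expressing surface-directed mutant channel were in 10 mM calcium Ringer's.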

TRPML3 = molecular target: T2, TRPML3 (Homo sapiens, UniProt Q8TDD5); assay: Fluorescent TRPML3 assay (as for TRPML1)
T2 construct: expressed in transfected cells
T2 sequence (Q8TDD5 1-553): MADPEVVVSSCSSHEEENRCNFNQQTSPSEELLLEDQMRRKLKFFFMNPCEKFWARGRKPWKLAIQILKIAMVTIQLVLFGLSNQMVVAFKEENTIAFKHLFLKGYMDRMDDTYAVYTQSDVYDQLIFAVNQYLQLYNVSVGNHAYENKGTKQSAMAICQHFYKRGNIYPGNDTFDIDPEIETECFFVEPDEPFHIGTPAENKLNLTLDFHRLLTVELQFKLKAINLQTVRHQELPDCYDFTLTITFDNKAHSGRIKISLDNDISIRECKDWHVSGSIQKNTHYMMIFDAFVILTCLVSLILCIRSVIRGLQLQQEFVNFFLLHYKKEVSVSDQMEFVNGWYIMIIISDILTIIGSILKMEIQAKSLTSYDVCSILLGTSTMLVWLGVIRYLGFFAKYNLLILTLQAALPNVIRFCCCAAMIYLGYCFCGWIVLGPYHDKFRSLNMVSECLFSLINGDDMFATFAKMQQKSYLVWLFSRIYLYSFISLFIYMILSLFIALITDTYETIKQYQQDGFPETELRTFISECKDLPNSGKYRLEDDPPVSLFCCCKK
How it was run: as §1

human TRPML1, sequence (Q9GZU1 whole entry L15A/L16A/L577A/L578A, form open): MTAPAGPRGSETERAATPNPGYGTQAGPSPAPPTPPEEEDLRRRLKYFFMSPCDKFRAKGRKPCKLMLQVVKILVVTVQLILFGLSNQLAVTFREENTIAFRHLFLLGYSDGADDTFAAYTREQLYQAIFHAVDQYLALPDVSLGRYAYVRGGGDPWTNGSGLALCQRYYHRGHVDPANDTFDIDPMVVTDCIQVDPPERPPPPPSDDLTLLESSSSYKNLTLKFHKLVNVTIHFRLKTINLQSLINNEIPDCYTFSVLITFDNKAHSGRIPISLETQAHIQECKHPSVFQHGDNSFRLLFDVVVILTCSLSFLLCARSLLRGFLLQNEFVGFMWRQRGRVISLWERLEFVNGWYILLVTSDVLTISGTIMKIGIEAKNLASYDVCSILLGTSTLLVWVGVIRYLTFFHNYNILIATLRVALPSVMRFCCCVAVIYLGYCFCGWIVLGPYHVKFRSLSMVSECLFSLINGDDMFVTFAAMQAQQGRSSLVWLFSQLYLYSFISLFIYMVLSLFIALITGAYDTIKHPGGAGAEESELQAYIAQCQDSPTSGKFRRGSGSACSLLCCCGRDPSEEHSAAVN

C[C@@H]1CN(c2ncnc3c2c(C2CC2)cn3-c2cccc(Cl)c2)[C@@H](C)CN1C(=O)C(C)(C)C [Compound 206, 1-((2R,5S)-4-(7-(3-chlorophenyl)-5-cyclopropyl-7H-pyrrolo[2,3-d]pyrimidin-4-yl)-2,5-dimethylpiperazin-1-yl)-2,2-dimethylpropan-1-one]
EC50 (human TRPML1; Table 3, compounds 201-283): < 100 nM | EC50 (TRPML2; Table 3, compounds 201-283): 100 to 500 nM | EC50 (TRPML3; Table 3, compounds 201-283): < 100 nM

C[C@@H]1CN(c2ncnc3c2c(N2CCCC2)cn3-c2cccc(Cl)c2)[C@@H](C)CN1C(=O)C1(F)CC1 [Compound 280, ((2R,5S)-4-(7-(3-chlorophenyl)-5-(pyrrolidin-1-yl)-7H-pyrrolo[2,3-d]pyrimidin-4-yl)-2,5-dimethylpiperazin-1-yl)(1-fluorocyclopropyl)methanone]
EC50 (human TRPML1; Table 3, compounds 201-283): 100 to 500 nM | EC50 (TRPML2; Table 3, compounds 201-283): 500 to 2000 nM | EC50 (TRPML3; Table 3, compounds 201-283): 500 to 2000 nM

C[C@@H]1CN(c2nccc3c2c(C2CC2)cn3-c2cccc(F)c2)[C@@H](C)CN1C(=O)C(C)(C)C [Compound 229, 1-((2R,5S)-4-(3-cyclopropyl-1-(3-fluorophenyl)-1H-pyrrolo[3,2-c]pyridin-4-yl)-2,5-dimethylpiperazin-1-yl)-2,2-dimethylpropan-1-one]
EC50 (human TRPML1; Table 3, compounds 201-283): < 100 nM | EC50 (TRPML2; Table 3, compounds 201-283): > 2000 nM | EC50 (TRPML3; Table 3, compounds 201-283): < 100 nM

[2H]C([2H])([2H])C(C(=O)N1C[C@H](C)N(c2ncnc3c2c(-c2ccccc2F)cn3-c2cc(C#N)ccn2)C[C@H]1C)(C([2H])([2H])[2H])C([2H])([2H])[2H] [Compound 231, 2-(4-((2S,5R)-4-(2,2-bis(methyl-d3)propanoyl-3,3,3-d3)-2,5-dimethylpiperazin-1-yl)-5-(2-fluorophenyl)-7H-pyrrolo[2,3-d]pyrimidin-7-yl)isonicotinonitrile]
EC50 (human TRPML1; Table 3, compounds 201-283): < 100 nM | EC50 (TRPML2; Table 3, compounds 201-283): < 100 nM | EC50 (TRPML3; Table 3, compounds 201-283): < 100 nM

COC(C)(C)C(=O)N1CCN(c2ncnc3c2c(-c2ccccc2F)cn3-c2cc(C#N)ccn2)[C@@H](C)C1 [Compound 242, (S)-2-(5-(2-fluorophenyl)-4-(4-(2-methoxy-2-methylpropanoyl)-2-methylpiperazin-1-yl)-7H-pyrrolo[2,3-d]pyrimidin-7-yl)isonicotinonitrile]
EC50 (human TRPML1; Table 3, compounds 201-283): < 100 nM | EC50 (TRPML2; Table 3, compounds 201-283): 100 to 500 nM | EC50 (TRPML3; Table 3, compounds 201-283): 100 to 500 nM

C[C@@H]1CN(c2ncnc3c2c(C2CC2)cn3-c2cccc(F)c2)[C@@H](C)CN1C(=O)C(C)(C)C [Compound 214, 1-((2R,5S)-4-(5-cyclopropyl-7-(3-fluorophenyl)-7H-pyrrolo[2,3-d]pyrimidin-4-yl)-2,5-dimethylpiperazin-1-yl)-2,2-dimethylpropan-1-one]
EC50 (human TRPML1; Table 3, compounds 201-283): < 100 nM | EC50 (TRPML2; Table 3, compounds 201-283): > 2000 nM | EC50 (TRPML3; Table 3, compounds 201-283): 500 to 2000 nM

C[C@@H]1CN(c2ncnc3c2c(C2CCC2)cn3-c2cc(C#N)ccn2)[C@@H](C)CN1C(=O)C(C)(C)C [Compound 237, 2-(5-cyclobutyl-4-((2S,5R)-2,5-dimethyl-4-pivaloylpiperazin-1-yl)-7H-pyrrolo[2,3-d]pyrimidin-7-yl)isonicotinonitrile]
EC50 (human TRPML1; Table 3, compounds 201-283): 100 to 500 nM | EC50 (TRPML2; Table 3, compounds 201-283): > 2000 nM | EC50 (TRPML3; Table 3, compounds 201-283): 500 to 2000 nM

C[C@@H]1CN(c2ncnc3c2c(C2CCC2)cn3-c2cc(F)cc(F)c2)[C@@H](C)CN1C(=O)C(C)(C)C(F)(F)F [Compound 259, 1-((2R,5S)-4-(5-cyclobutyl-7-(3,5-difluorophenyl)-7H-pyrrolo[2,3-d]pyrimidin-4-yl)-2,5-dimethylpiperazin-1-yl)-3,3,3-trifluoro-2,2-dimethylpropan-1-one]
EC50 (human TRPML1; Table 3, compounds 201-283): 100 to 500 nM | EC50 (TRPML2; Table 3, compounds 201-283): 500 to 2000 nM | EC50 (TRPML3; Table 3, compounds 201-283): 100 to 500 nM

C[C@@H]1CN(c2ncnc3c2c(-c2ccccc2)cn3-c2cc(C#N)ccn2)CCN1C(=O)C(C)(C)C [Compound 121, (R)-2-(4-(3-methyl-4-pivaloylpiperazin-1-yl)-5-phenyl-7H-pyrrolo[2,3-d]pyrimidin-7-yl)isonicotinonitrile]
EC50 (human TRPML1; Table 3, compounds 101-177): < 100 nM | EC50 (TRPML2; Table 3, compounds 101-177): 100 to 500 nM | EC50 (TRPML3; Table 3, compounds 101-177): < 100 nM

C[C@H]1CN(C(=O)[C@H](F)C(C)(C)C)CCN1c1ncnc2c1c(C1CC1)cn2-c1cc(C#N)ccn1 (single isomer, unassigned) [Compound 202]
EC50 (human TRPML1; Table 3, compounds 201-283): < 100 nM | EC50 (TRPML2; Table 3, compounds 201-283): < 100 nM | EC50 (TRPML3; Table 3, compounds 201-283): < 100 nM

COC(C)(C)C(=O)N1C[C@H](C)N(c2ncnc3c2c(N2CCC2)cn3-c2cccc(F)c2)C[C@H]1C [Compound 277, 1-((2R,5S)-4-(5-(azetidin-1-yl)-7-(3-fluorophenyl)-7H-pyrrolo[2,3-d]pyrimidin-4-yl)-2,5-dimethylpiperazin-1-yl)-2-methoxy-2-methylpropan-1-one]
EC50 (human TRPML1; Table 3, compounds 201-283): < 100 nM | EC50 (TRPML2; Table 3, compounds 201-283): 500 to 2000 nM | EC50 (TRPML3; Table 3, compounds 201-283): 100 to 500 nM

C[C@H]1CN(C(=O)CC(C)(C)C)CCN1c1ncnc2c1c(-c1ccccc1F)cn2-c1cc(C#N)ccn1 [Compound 133, (S)-2-(4-(4-(3,3-dimethylbutanoyl)-2-methylpiperazin-1-yl)-5-(2-fluorophenyl)-7H-pyrrolo[2,3-d]pyrimidin-7-yl)isonicotinonitrile]
EC50 (human TRPML1; Table 3, compounds 101-177): < 100 nM | EC50 (TRPML2; Table 3, compounds 101-177): 100 to 500 nM | EC50 (TRPML3; Table 3, compounds 101-177): < 100 nM

C[C@H]1CN(C(=O)C(C)(C)C)CCN1c1ncnc2c1c(-c1ccccc1)cn2-c1cc(C#N)ccn1 [Compound 120, (S)-2-(4-(2-methyl-4-pivaloylpiperazin-1-yl)-5-phenyl-7H-pyrrolo[2,3-d]pyrimidin-7-yl)isonicotinonitrile]
EC50 (human TRPML1; Table 3, compounds 101-177): < 100 nM | EC50 (TRPML2; Table 3, compounds 101-177): 100 to 500 nM | EC50 (TRPML3; Table 3, compounds 101-177): < 100 nM

C[C@@H]1CN(c2ncnc3c2c(N2CCC2)cn3-c2cccc(Cl)c2)[C@@H](C)CN1C(=O)C(C)(C)C [Compound 220, 1-((2R,5S)-4-(5-(azetidin-1-yl)-7-(3-chlorophenyl)-7H-pyrrolo[2,3-d]pyrimidin-4-yl)-2,5-dimethylpiperazin-1-yl)-2,2-dimethylpropan-1-one]
EC50 (human TRPML1; Table 3, compounds 201-283): < 100 nM | EC50 (TRPML2; Table 3, compounds 201-283): 100 to 500 nM | EC50 (TRPML3; Table 3, compounds 201-283): < 100 nM

CC(C)(O)C(=O)N1CCN(c2ncnc3c2c(-c2ccccc2F)cn3-c2cc(C#N)ccn2)C(C)(C)C1 [Compound 170, 2-(5-(2-fluorophenyl)-4-(4-(2-hydroxy-2-methylpropanoyl)-2,2-dimethylpiperazin-1-yl)-7H-pyrrolo[2,3-d]pyrimidin-7-yl)isonicotinonitrile]
EC50 (human TRPML1; Table 3, compounds 101-177): < 100 nM | EC50 (TRPML2; Table 3, compounds 101-177): 100 to 500 nM | EC50 (TRPML3; Table 3, compounds 101-177): < 100 nM

C[C@@H]1CN(c2ncnc3c2c(N2CCC2)cn3-c2cc(C#N)ccn2)CCN1C(=O)C1(F)CC1 [Compound 270, (R)-2-(5-(azetidin-1-yl)-4-(4-(1-fluorocyclopropane-1-carbonyl)-3-methylpiperazin-1-yl)-7H-pyrrolo[2,3-d]pyrimidin-7-yl)isonicotinonitrile]
EC50 (human TRPML1; Table 3, compounds 201-283): < 100 nM | EC50 (TRPML2; Table 3, compounds 201-283): 100 to 500 nM | EC50 (TRPML3; Table 3, compounds 201-283): < 100 nM

C[C@H]1CN(C(=O)C(C)(C)C)CCN1c1ncnc2c1c(C1CC1)cn2-c1cccc(F)c1 [Compound 215, (S)-1-(4-(5-cyclopropyl-7-(3-fluorophenyl)-7H-pyrrolo[2,3-d]pyrimidin-4-yl)-3-methylpiperazin-1-yl)-2,2-dimethylpropan-1-one]
EC50 (human TRPML1; Table 3, compounds 201-283): 100 to 500 nM | EC50 (TRPML2; Table 3, compounds 201-283): 100 to 500 nM | EC50 (TRPML3; Table 3, compounds 201-283): 500 to 2000 nM

C[C@H]1CN(C(=O)CC(C)(C)C(F)(F)F)CCN1c1ncnc2c1c(-c1ccccc1F)cn2-c1cc(C#N)ccn1 [Compound 140, (S)-2-(5-(2-fluorophenyl)-4-(2-methyl-4-(4,4,4-trifluoro-3,3-dimethylbutanoyl)piperazin-1-yl)-7H-pyrrolo[2,3-d]pyrimidin-7-yl)isonicotinonitrile]
EC50 (human TRPML1; Table 3, compounds 101-177): < 100 nM | EC50 (TRPML2; Table 3, compounds 101-177): < 100 nM | EC50 (TRPML3; Table 3, compounds 101-177): < 100 nM

Cc1nccnc1-c1cn(-c2cc(C#N)ccn2)c2ncnc(N3C[C@@H](C)N(C(=O)CC(C)C)C[C@@H]3C)c12 [Compound 173, 2-(4-((2S,5R)-2,5-dimethyl-4-(3-methylbutanoyl)piperazin-1-yl)-5-(3-methylpyrazin-2-yl)-7H-pyrrolo[2,3-d]pyrimidin-7-yl)isonicotinonitrile]
EC50 (human TRPML1; Table 3, compounds 101-177): 100 to 500 nM | EC50 (TRPML2; Table 3, compounds 101-177): > 2000 nM | EC50 (TRPML3; Table 3, compounds 101-177): > 2000 nM
